Source: article doi:10.64898/2025.12.18.695269, “Structural Basis of TACO1-Mediated Efficient Mitochondrial Translation” (bioRxiv, 2025)

Tests used:
TACO1 [1] = biological target: T1, TACO1 (Homo sapiens, UniProt Q9BSH4); assay: fluorescence increase of BODIPY-labelled nucleotide, saturation fit; format: binding; settings: labelled compound; 500 nM TACO1, 0-30 μM ligand, 10 min
T1 construct: recombinant TACO1

TACO1 [2] = biological target: T1, TACO1; assay: competition with BODIPY-FL-GTPγS fluorescence binding; settings: pre-incubation with GMPPNP before BODIPY-FL-GTPγS; competitive

Row | Kd (TACO1 [1]) | Compound | competition with BODIPY-FL-GTPγS fluorescence binding (TACO1 [2])
1 | 25 µM | BODIPY-FL-GTPγS | 
2 |  | Nc1nc2c(ncn2[C@@H]2O[C@H](COP(=O)(O)OP(=O)(O)NP(=O)(O)O)[C@@H](O)[C@H]2O)c(=O)[nH]1 [GMPPNP] | This effect was abolished by pre-incubation with the non-hydrolyzable GTP analog GMPPNP
